Experiment [1] has as its target Rho-associated protein kinase 1 (Homo sapiens) (UniProt Q13464). Put plainly: Inhibition of human recombinant ROCK1 at 40 nM in presence of ATP by radiometric assay relative to control.
For experiment [2], the target named is T1, Eukaryotic translation initiation factor 2-alpha kinase 3 (Homo sapiens) (UniProt Q9NZJ5).
T1 sequence (whole entry): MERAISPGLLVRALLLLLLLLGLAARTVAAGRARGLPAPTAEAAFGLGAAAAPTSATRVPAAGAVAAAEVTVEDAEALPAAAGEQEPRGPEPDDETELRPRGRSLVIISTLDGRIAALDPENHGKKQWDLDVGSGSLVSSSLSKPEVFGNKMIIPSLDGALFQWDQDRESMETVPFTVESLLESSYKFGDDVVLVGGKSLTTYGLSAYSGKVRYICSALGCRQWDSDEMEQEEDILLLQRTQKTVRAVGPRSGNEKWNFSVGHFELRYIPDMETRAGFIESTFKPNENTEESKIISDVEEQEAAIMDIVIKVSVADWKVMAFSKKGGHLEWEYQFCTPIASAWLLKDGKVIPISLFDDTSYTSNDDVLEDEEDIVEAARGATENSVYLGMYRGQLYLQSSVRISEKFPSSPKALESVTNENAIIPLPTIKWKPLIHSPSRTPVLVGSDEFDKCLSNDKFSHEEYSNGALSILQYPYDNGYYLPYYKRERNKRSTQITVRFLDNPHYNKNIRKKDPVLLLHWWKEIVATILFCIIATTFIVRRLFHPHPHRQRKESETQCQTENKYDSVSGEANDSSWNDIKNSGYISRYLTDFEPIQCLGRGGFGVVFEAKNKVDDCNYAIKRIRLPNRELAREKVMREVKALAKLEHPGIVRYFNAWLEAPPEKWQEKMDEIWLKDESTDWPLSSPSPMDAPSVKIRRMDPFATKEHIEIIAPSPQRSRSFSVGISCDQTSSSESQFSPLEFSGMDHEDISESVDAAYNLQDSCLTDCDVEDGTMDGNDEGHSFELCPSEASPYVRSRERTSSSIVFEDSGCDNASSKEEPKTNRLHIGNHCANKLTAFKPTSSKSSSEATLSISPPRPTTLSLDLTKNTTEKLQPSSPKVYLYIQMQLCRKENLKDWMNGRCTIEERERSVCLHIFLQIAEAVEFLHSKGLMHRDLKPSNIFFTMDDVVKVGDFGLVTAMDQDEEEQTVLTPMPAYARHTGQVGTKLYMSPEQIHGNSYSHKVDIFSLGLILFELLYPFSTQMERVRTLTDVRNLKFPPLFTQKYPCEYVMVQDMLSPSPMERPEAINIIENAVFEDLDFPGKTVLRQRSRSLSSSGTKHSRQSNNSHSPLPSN
The experiment can be described thus: Inhibition of human recombinant PEK at 500 nM in presence of ATP by radiometric assay relative to control.

Experiment [3] addresses T2, Testis-specific serine/threonine-protein kinase 3 (Homo sapiens) (UniProt Q96PN8).
T2 sequence (whole entry): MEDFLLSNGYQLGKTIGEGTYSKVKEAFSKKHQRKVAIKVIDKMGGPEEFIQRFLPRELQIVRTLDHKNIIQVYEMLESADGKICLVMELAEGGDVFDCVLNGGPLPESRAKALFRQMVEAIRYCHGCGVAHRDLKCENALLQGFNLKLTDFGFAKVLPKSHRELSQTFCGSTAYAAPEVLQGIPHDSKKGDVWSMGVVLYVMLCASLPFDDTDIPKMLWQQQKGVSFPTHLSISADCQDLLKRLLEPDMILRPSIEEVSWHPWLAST
The experiment can be described thus: Inhibition of human recombinant TSSK3 at 500 nM in presence of ATP by radiometric assay relative to control.

Experiment [4] deals with T3, Ephrin type-B receptor 4 (Homo sapiens) (UniProt P54760).
T3 sequence (whole entry): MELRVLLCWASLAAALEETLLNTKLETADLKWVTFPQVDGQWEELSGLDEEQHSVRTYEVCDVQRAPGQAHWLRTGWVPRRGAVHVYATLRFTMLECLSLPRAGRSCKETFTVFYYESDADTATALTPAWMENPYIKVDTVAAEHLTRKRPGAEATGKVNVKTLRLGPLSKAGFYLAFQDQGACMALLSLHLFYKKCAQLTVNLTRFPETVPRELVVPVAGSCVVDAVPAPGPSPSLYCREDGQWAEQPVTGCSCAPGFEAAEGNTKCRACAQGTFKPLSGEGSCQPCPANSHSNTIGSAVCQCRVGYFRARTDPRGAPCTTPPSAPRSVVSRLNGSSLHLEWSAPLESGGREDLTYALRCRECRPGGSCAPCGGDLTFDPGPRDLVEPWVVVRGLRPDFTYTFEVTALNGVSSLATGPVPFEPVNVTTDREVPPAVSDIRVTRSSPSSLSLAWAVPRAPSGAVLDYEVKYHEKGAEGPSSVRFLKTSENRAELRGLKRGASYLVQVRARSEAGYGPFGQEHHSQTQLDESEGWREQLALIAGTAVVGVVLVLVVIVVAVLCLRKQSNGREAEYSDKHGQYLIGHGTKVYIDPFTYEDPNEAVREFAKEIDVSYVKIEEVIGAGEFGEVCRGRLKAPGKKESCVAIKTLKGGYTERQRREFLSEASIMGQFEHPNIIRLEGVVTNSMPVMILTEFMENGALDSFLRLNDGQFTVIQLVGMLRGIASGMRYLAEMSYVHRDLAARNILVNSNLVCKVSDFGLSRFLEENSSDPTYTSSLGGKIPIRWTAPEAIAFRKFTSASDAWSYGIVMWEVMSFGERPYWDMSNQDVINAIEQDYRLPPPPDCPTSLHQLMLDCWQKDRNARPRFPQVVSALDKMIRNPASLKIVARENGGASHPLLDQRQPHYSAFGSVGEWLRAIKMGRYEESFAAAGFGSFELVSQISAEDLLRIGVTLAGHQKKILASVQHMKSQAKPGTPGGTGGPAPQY
Put plainly: Inhibition of human recombinant EphB4 at 15 nM related to control ULK1.

Chain of Rho-associated protein kinase 1 (Homo sapiens) (Q13464 2-1354 limits assumed): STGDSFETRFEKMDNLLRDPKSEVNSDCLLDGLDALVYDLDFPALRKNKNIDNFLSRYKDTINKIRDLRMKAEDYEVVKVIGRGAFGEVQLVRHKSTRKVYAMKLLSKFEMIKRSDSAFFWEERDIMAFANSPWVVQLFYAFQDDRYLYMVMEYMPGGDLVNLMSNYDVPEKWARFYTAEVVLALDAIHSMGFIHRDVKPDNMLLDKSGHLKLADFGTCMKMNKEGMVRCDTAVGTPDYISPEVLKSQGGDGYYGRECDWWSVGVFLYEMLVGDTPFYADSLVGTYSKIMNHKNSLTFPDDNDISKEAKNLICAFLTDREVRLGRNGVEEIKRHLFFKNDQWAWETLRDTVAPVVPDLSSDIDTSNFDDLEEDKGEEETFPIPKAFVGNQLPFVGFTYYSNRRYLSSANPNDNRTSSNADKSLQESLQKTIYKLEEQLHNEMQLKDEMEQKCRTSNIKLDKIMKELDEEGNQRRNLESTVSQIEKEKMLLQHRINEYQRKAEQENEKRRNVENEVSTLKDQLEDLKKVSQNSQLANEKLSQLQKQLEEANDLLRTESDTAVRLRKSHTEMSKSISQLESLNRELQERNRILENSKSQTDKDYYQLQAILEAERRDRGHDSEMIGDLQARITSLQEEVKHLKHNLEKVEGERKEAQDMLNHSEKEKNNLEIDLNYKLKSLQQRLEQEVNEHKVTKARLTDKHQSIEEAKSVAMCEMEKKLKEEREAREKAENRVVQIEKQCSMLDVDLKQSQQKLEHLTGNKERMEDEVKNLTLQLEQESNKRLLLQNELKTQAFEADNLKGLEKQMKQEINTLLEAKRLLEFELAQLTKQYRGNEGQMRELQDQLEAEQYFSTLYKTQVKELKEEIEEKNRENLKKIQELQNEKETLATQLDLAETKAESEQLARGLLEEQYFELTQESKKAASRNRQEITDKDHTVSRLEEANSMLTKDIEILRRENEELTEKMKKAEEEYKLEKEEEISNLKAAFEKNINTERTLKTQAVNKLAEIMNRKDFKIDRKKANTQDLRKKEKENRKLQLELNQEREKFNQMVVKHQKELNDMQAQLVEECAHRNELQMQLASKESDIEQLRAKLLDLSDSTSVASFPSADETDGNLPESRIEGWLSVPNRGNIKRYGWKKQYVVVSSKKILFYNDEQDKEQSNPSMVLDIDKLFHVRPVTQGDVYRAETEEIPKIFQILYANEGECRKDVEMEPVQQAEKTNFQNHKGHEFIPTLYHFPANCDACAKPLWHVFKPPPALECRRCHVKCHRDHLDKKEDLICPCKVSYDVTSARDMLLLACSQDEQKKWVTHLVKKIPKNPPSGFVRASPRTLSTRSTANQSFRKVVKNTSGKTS

As usually defined, the inhibition is the percentage by which the read-out fell short of the control. In the case of `O=C(N[C@@H](C1CC1)C(F)(F)F)c1cc(-c2cnn3cc(-c4ccc(F)cc4)cnc23)cs1`, the inhibition in experiment [1] came out at 0%.

Regarding `CNC(=O)c1ccccc1Oc1nc(Nc2cc(OC)c(OC)c(OC)c2)ncc1Br`, the inhibition in experiment [2] and in experiment [3] was 0% each time.

In the case of `CC(C)[C@H](NC(=O)c1cc(-c2cnn3cc(-c4ccc(OCCN5CCCCC5)cc4)cnc23)cs1)C(F)(F)F`, the fold change (FC) in experiment [4] is 0.03.

The values are drawn from ChEMBL document CHEMBL5653631, “A Potent and Selective ULK1 Inhibitor Suppresses Autophagy and Sensitizes Cancer Cells to Nutrient Stress” (iScience, 2018).
